Test results: patent publication US20230390352A1, “COMPOSITION COMPRISING SALVIA MILTIORRHIZA EXTRACT AS ACTIVE INGREDIENT FOR PREVENTION AND TREATMENT OF DEPRESSION IN MENOPAUSAL WOMEN” (UNDBIO.CO.,LTD, priority 2020, published 2023)

Key:
[1] = system: ER (female hormone receptor); test: female hormone receptor (ER) expression in MCF-7 BUS cell line by real-time PCR; format: cell-based; settings: each ingredient 10 μg/mL, 72 hours
Description: Ingredients included in the Salvia miltiorrhiza extract obtained in Example embodiment 1 were confirmed, and in ingredients cryptotanshinone, danshensu, isotanshinone, salvianolic acid B, and tanshinone IIA, female hormone regulating ability was confirmed. An MCF-7 BUS cell line used in the experiment was received from Tufts University in the United States, and incubated in a CO2 incubator maintained at 37° C. and 5% CO2 by using a Dulbecco modified eagle medium (DMEM) (Gibco, USA) added with 10% fetal bovine serum (Gibco, USA) and 1% penicillin/streptomycin (Gibco, USA).
In the experiment, in order to evaluate the female hormone regulatory ability, the sensitivity to estrogen, one of the female hormones, was measured using the MCF-7 BUS cell line, and first, the MCF-7 BUS cell line was dispensed at 1×10^5 cells/well in a 60 mm culture dish, and then incubated in a CO2 incubator maintained at 37° C. and 5% CO2.
After incubation for 24 hours, each ingredient was treated at a concentration of 10 μg/mL, and 17β-Estradiol (E2) was treated with 10^−10 M as a positive control.
At this time, each primer was prepared by Takara, and ER was prepared with Forward primer: […] […] A CT value obtained through RT-PCR was converted into ΔCT, and this ΔCT value was analyzed through a change rate of an experimental group with respect to the control group, which was illustrated in FIG. 1.

[2] = stability (content) of ingredients included in the Salvia miltiorrhiza extract on storage; format: physicochemical; settings: for Content (mg/g) of ingredient after 5 days of storage at room temperature of extract: 5 days at room temperature; for Content (mg/g) of ingredient in Salvia miltiorrhiza extract: before storage
Description: When the Salvia miltiorrhiza extract was stored at 95° C. for 0 hour, 1 hour, 2 hours, 3 hours, 4 hours and 6 hours, in order to confirm whether the stability of 5 types of ingredients of which the female hormone regulatory ability has been confirmed in Example embodiment 2-1 above was maintained, the ingredient contents of the stored samples were analyzed by time. In addition, when the Salvia miltiorrhiza extract was stored at room temperature for 1 day, 2 days, 3 days, 4 days and 5 days, the stability of the ingredients was confirmed through analysis of the contents of 5 types of ingredients included in the Salvia miltiorrhiza extract.
In addition, results of comparing the content of each ingredient included in the Salvia miltiorrhiza extract at various concentrations (0, 50, 70, and 100% ethanol) and the content after 5 days of storage at room temperature were shown together in Table 1 below.

[3] = system: natural aging-induced menopausal animal model; test: antidepressant efficacy verification experiment in natural aging-induced menopausal animal model (summary); format: in vivo; settings: antidepressant refractory animal model
Source text: Accordingly, the Salvia miltiorrhiza extract of the present disclosure may be administered to patients with resistance to benzodiazepine or imipramine, and may be used to treat depression that is resistant to the drug.

Row | Content (mg/g) of ingredient after 5 days of storage at room temperature of extract ([2]; extract made with 0% EtOH) [mg/g] | Content (mg/g) of ingredient in Salvia miltiorrhiza extract ([2]; extract made with 0% EtOH) [mg/g] | Content (mg/g) of ingredient after 5 days of storage at room temperature of extract ([2]; extract made with 50% EtOH) [mg/g] | Content (mg/g) of ingredient in Salvia miltiorrhiza extract ([2]; extract made with 50% EtOH) [mg/g] | Content (mg/g) of ingredient after 5 days of storage at room temperature of extract ([2]; extract made with 70% EtOH) [mg/g] | Content (mg/g) of ingredient in Salvia miltiorrhiza extract ([2]; extract made with 70% EtOH) [mg/g] | Content (mg/g) of ingredient after 5 days of storage at room temperature of extract ([2]; extract made with 100% EtOH) [mg/g] | Content (mg/g) of ingredient in Salvia miltiorrhiza extract ([2]; extract made with 100% EtOH) [mg/g] | SMILES | female hormone receptor regulating effect (ER mRNA change rate, FIG. 1) [1] | antidepressant effect in natural aging-induced menopausal animal model [3]
1 | 0.32 | 0.34 | 1.22 | 1.28 | 24.19 | 25.17 | 17.33 | 18.32 | O=C(O)[C@H](O)Cc1ccc(O)c(O)c1 [Danshensu] | most remarkable female hormone receptor regulating effect | 
2 | 0.99 | 2.22 | 5.62 | 12.31 | 12.11 | 14.23 | 10.33 | 12.22 | Cc1coc2c1C(=O)c1ccc3c(C)cccc3c1C2=O [Isotanshinone] |  | 
3 | 18.33 | 21.2 | 26.21 | 38.23 | 23.21 | 33.1 | 15.27 | 20.3 | O=C(/C=C/c1ccc(O)c2c1[C@H](C(=O)O[C@H](Cc1ccc(O)c(O)c1)C(=O)O)[C@@H](c1ccc(O)c(O)c1)O2)O[C@H](Cc1ccc(O)c(O)c1)C(=O)O [Salvianolic acid B] |  | 
4 | 0.65 | 1.33 | 4.11 | 5.21 | 4.33 | 7.22 | 5.24 | 8.33 | Cc1coc2c1C(=O)C(=O)c1c-2ccc2c1CCCC2(C)C [Tanshinone IIA] |  | 
5 |  |  |  |  |  |  |  |  | CN(C)CCCN1c2ccccc2CCc2ccccc21 [imipramine] |  | insufficient antidepressant effect
